Data reported in ChEMBL document CHEMBL2331400, “Structure-based design and evaluation of naphthalene diimide G-quadruplex ligands as telomere targeting agents in pancreatic cancer cells” (J Med Chem, 2013).
Active and inactive are the calls of the source. The rule behind the calls is not given here.

system: WI-38; assay: Cytotoxicity against human WI38 cells assessed as growth inhibition after 96 hrs by SRB assay; assay type: cell-based; details: WI-38, 96 h

SMILES	IC50 [µM]
COCCCN1C(=O)c2cc(NCCCN3CCN(C)CC3)c3c4c(cc(NCCCN5CCN(C)CC5)c(c24)C1=O)C(=O)N(CCCOC)C3=O	3.32
CN1CCN(CCCNc2cc3c4c(c(NCCCN5CCN(C)CC5)cc5c4c2C(=O)N(CC2CCCO2)C5=O)C(=O)N(CC2CCCO2)C3=O)CC1 (racemic)	> 10
CN1CCN(CCCNc2cc3c4c(c(NCCCN5CCN(C)CC5)cc5c4c2C(=O)N(CC2CCOCC2)C5=O)C(=O)N(CC2CCOCC2)C3=O)CC1	12.7
CN1CCN(CCCNc2cc3c4c(c(NCCCN5CCN(C)CC5)cc5c4c2C(=O)N(CCCN2CCN(C)CC2)C5=O)C(=O)N(CCCN2CCN(C)CC2)C3=O)CC1	9

system: MIA PaCa-2; assay: Cytotoxicity against human MIAPaCa2 cells assessed as growth inhibition after 96 hrs by SRB assay; assay type: functional, cell-based; details: MIA PaCa-2, 96 h

SMILES	IC50 [µM]
COCCCN1C(=O)c2cc(NCCCN3CCN(C)CC3)c3c4c(cc(NCCCN5CCN(C)CC5)c(c24)C1=O)C(=O)N(CCCOC)C3=O	2.79
CN1CCN(CCCNc2cc3c4c(c(NCCCN5CCN(C)CC5)cc5c4c2C(=O)N(CC2CCCO2)C5=O)C(=O)N(CC2CCCO2)C3=O)CC1 (racemic)	5.65
CN1CCN(CCCNc2cc3c4c(c(NCCCN5CCN(C)CC5)cc5c4c2C(=O)N(CC2CCOCC2)C5=O)C(=O)N(CC2CCOCC2)C3=O)CC1	2.5

system: not listed separately; assay: Selectivity ratio of IC50 for human WI-38 cells to IC50 for human 786-0 cells; assay type: ADME, cell-based; details: WI-38 cells versus 786-0 cells, read-out: Ratio IC50

SMILES	selectivity ratio
CN1CCN(CCCNc2cc3c4c(c(NCCCN5CCN(C)CC5)cc5c4c2C(=O)N(CC2CCOCC2)C5=O)C(=O)N(CC2CCOCC2)C3=O)CC1	10

organism: Homo sapiens; assay: Stabilization of human telomeric G-quadruplex DNA sequence 5'-FAM-d(GGG[TTAGGG]3)-TAMRA-3' assessed as melting temperature at 1 uM by FRET assay; details: not given

ΔTm [°C]	SMILES
0.5	COCCCN1C(=O)c2cc(NCCCN3CCN(C)CC3)c3c4c(cc(NCCCN5CCN(C)CC5)c(c24)C1=O)C(=O)N(CCCOC)C3=O
22.7	CN1CCN(CCCNc2cc3c4c(c(NCCCN5CCN(C)CC5)cc5c4c2C(=O)N(CC2CCCO2)C5=O)C(=O)N(CC2CCCO2)C3=O)CC1 (racemic)
0.1	CN1CCN(CCCNc2cc3c4c(c(NCCCN5CCN(C)CC5)cc5c4c2C(=O)N(CC2CCOCC2)C5=O)C(=O)N(CC2CCOCC2)C3=O)CC1
28.3	CN1CCN(CCCNc2cc3c4c(c(NCCCN5CCN(C)CC5)cc5c4c2C(=O)N(CCCN2CCN(C)CC2)C5=O)C(=O)N(CCCN2CCN(C)CC2)C3=O)CC1

system: unidentified; assay: Stabilization of HSP90b promoter sequence 5'-FAM-d(GGGCGGGCCAAAGGGAAGGGG)-TAMRA-3' (unknown origin) assessed as melting temperature at 1 uM by FRET assay; details: not given

ΔTm [°C]	SMILES
23.8	COCCCN1C(=O)c2cc(NCCCN3CCN(C)CC3)c3c4c(cc(NCCCN5CCN(C)CC5)c(c24)C1=O)C(=O)N(CCCOC)C3=O
21	CN1CCN(CCCNc2cc3c4c(c(NCCCN5CCN(C)CC5)cc5c4c2C(=O)N(CC2CCCO2)C5=O)C(=O)N(CC2CCCO2)C3=O)CC1 (racemic)
0.8	CN1CCN(CCCNc2cc3c4c(c(NCCCN5CCN(C)CC5)cc5c4c2C(=O)N(CC2CCOCC2)C5=O)C(=O)N(CC2CCOCC2)C3=O)CC1
32	CN1CCN(CCCNc2cc3c4c(c(NCCCN5CCN(C)CC5)cc5c4c2C(=O)N(CCCN2CCN(C)CC2)C5=O)C(=O)N(CCCN2CCN(C)CC2)C3=O)CC1

system: unidentified; assay: Stabilization of duplex DNA T-loop (unknown origin) 5'-FAM-dTATAGCTATA-HEG-TATAGCTATA-TAMRA-3' assessed as melting temperature at 1 uM by FRET assay; details: not given

ΔTm [°C]	SMILES
0	COCCCN1C(=O)c2cc(NCCCN3CCN(C)CC3)c3c4c(cc(NCCCN5CCN(C)CC5)c(c24)C1=O)C(=O)N(CCCOC)C3=O
0.2	CN1CCN(CCCNc2cc3c4c(c(NCCCN5CCN(C)CC5)cc5c4c2C(=O)N(CC2CCCO2)C5=O)C(=O)N(CC2CCCO2)C3=O)CC1 (racemic)
0.2	CN1CCN(CCCNc2cc3c4c(c(NCCCN5CCN(C)CC5)cc5c4c2C(=O)N(CC2CCOCC2)C5=O)C(=O)N(CC2CCOCC2)C3=O)CC1
1.3	CN1CCN(CCCNc2cc3c4c(c(NCCCN5CCN(C)CC5)cc5c4c2C(=O)N(CCCN2CCN(C)CC2)C5=O)C(=O)N(CCCN2CCN(C)CC2)C3=O)CC1

system: MIA PaCa-2; assay: Inhibition of telomerase activity in human MIAPaCa2 cells assessed as telomere elongation at 25 to 50 nM by TRAP-LIG assay; assay type: cell-based; details: not given

SMILES	inhibition
CN1CCN(CCCNc2cc3c4c(c(NCCCN5CCN(C)CC5)cc5c4c2C(=O)N(CCCN2CCN(C)CC2)C5=O)C(=O)N(CCCN2CCN(C)CC2)C3=O)CC1	inactive

system: 786-0; assay: Cytotoxicity against human 786-0 cells assessed as growth inhibition after 96 hrs by SRB assay; assay type: functional, cell-based; details: 786-0, 96 h

SMILES	IC50 [µM]
COCCCN1C(=O)c2cc(NCCCN3CCN(C)CC3)c3c4c(cc(NCCCN5CCN(C)CC5)c(c24)C1=O)C(=O)N(CCCOC)C3=O	7.17
CN1CCN(CCCNc2cc3c4c(c(NCCCN5CCN(C)CC5)cc5c4c2C(=O)N(CC2CCCO2)C5=O)C(=O)N(CC2CCCO2)C3=O)CC1 (racemic)	> 10
CN1CCN(CCCNc2cc3c4c(c(NCCCN5CCN(C)CC5)cc5c4c2C(=O)N(CC2CCOCC2)C5=O)C(=O)N(CC2CCOCC2)C3=O)CC1	1.2

system: MCF7; assay: Cytotoxicity against human MCF7 cells assessed as growth inhibition after 96 hrs by SRB assay; assay type: functional, cell-based; details: MCF7, 96 h

SMILES	IC50 [µM]
COCCCN1C(=O)c2cc(NCCCN3CCN(C)CC3)c3c4c(cc(NCCCN5CCN(C)CC5)c(c24)C1=O)C(=O)N(CCCOC)C3=O	5.62
CN1CCN(CCCNc2cc3c4c(c(NCCCN5CCN(C)CC5)cc5c4c2C(=O)N(CC2CCCO2)C5=O)C(=O)N(CC2CCCO2)C3=O)CC1 (racemic)	> 10
CN1CCN(CCCNc2cc3c4c(c(NCCCN5CCN(C)CC5)cc5c4c2C(=O)N(CC2CCOCC2)C5=O)C(=O)N(CC2CCOCC2)C3=O)CC1	3.12

system: A549; assay: Cytotoxicity against human A549 cells assessed as growth inhibition after 96 hrs by SRB assay; assay type: functional, cell-based; details: A549, 96 h

SMILES	IC50 [µM]
COCCCN1C(=O)c2cc(NCCCN3CCN(C)CC3)c3c4c(cc(NCCCN5CCN(C)CC5)c(c24)C1=O)C(=O)N(CCCOC)C3=O	2.54
CN1CCN(CCCNc2cc3c4c(c(NCCCN5CCN(C)CC5)cc5c4c2C(=O)N(CC2CCCO2)C5=O)C(=O)N(CC2CCCO2)C3=O)CC1 (racemic)	5.57
CN1CCN(CCCNc2cc3c4c(c(NCCCN5CCN(C)CC5)cc5c4c2C(=O)N(CC2CCOCC2)C5=O)C(=O)N(CC2CCOCC2)C3=O)CC1	2.92

system: MIA PaCa-2; assay: Induction of senescence in human MIAPaCa2 cells at 25 to 50 nM after 7 days by beta-galactosidase assay relative to vehicle-treated control; assay type: functional, cell-based; details: not given

SMILES	Activity
CN1CCN(CCCNc2cc3c4c(c(NCCCN5CCN(C)CC5)cc5c4c2C(=O)N(CCCN2CCN(C)CC2)C5=O)C(=O)N(CCCN2CCN(C)CC2)C3=O)CC1	Active

system: MIA PaCa-2; assay: Inhibition of telomerase activity in human MIAPaCa2 cells assessed as telomere elongation up to 10 uM after 7 days by TRAP-LIG assay; assay type: cell-based; details: not given

SMILES	inhibition
COCCCN1C(=O)c2cc(NCCCN3CCN(C)CC3)c3c4c(cc(NCCCN5CCN(C)CC5)c(c24)C1=O)C(=O)N(CCCOC)C3=O	inactive
CN1CCN(CCCNc2cc3c4c(c(NCCCN5CCN(C)CC5)cc5c4c2C(=O)N(CC2CCCO2)C5=O)C(=O)N(CC2CCCO2)C3=O)CC1 (racemic)	inactive

system: not listed separately; assay: Cytotoxicity against human RCC4 cells assessed as growth inhibition after 96 hrs by SRB assay; assay type: functional, cell-based; details: RCC4, 96 h

SMILES	IC50 [µM]
COCCCN1C(=O)c2cc(NCCCN3CCN(C)CC3)c3c4c(cc(NCCCN5CCN(C)CC5)c(c24)C1=O)C(=O)N(CCCOC)C3=O	10.5
CN1CCN(CCCNc2cc3c4c(c(NCCCN5CCN(C)CC5)cc5c4c2C(=O)N(CC2CCCO2)C5=O)C(=O)N(CC2CCCO2)C3=O)CC1 (racemic)	> 10
CN1CCN(CCCNc2cc3c4c(c(NCCCN5CCN(C)CC5)cc5c4c2C(=O)N(CC2CCOCC2)C5=O)C(=O)N(CC2CCOCC2)C3=O)CC1	8.38

system: unidentified; assay: Stabilization of HSP90a promoter sequence 5'-FAM-d(GGGCCAAAGGGAAGGGGTGGG)-TAMRA-3' (unknown origin) assessed as melting temperature at 1 uM by FRET assay; details: not given

ΔTm [°C]	SMILES
29	COCCCN1C(=O)c2cc(NCCCN3CCN(C)CC3)c3c4c(cc(NCCCN5CCN(C)CC5)c(c24)C1=O)C(=O)N(CCCOC)C3=O
27.1	CN1CCN(CCCNc2cc3c4c(c(NCCCN5CCN(C)CC5)cc5c4c2C(=O)N(CC2CCCO2)C5=O)C(=O)N(CC2CCCO2)C3=O)CC1 (racemic)
0.7	CN1CCN(CCCNc2cc3c4c(c(NCCCN5CCN(C)CC5)cc5c4c2C(=O)N(CC2CCOCC2)C5=O)C(=O)N(CC2CCOCC2)C3=O)CC1
36.3	CN1CCN(CCCNc2cc3c4c(c(NCCCN5CCN(C)CC5)cc5c4c2C(=O)N(CCCN2CCN(C)CC2)C5=O)C(=O)N(CCCN2CCN(C)CC2)C3=O)CC1
